Assay results published in ChEMBL document CHEMBL4725417, “Membrane Permeable, Bioreversibly Modified Prodrugs of Nucleoside Diphosphate-γ-Phosphonates” (J Med Chem, 2020).
Calls of active or inactive are those of the source. The rule behind the calls is not given here.

Tests used:
[1] = target: Human immunodeficiency virus type 1 reverse transcriptase (Human immunodeficiency virus 1) (UniProt Q72547); experiment: Substrate activity at HIV1 reverse transcriptase incubated at 37 degC for 30 mins and at 80 degC for 7 mins by primer extension assay; details: time 37.0 min
[2] = Cytotoxicity in human CEM cells assessed as reduction in cell proliferation; format: cell-based; details: CEM cells (CCRF-CEM)
[3] = tested on: Human immunodeficiency virus 2; experiment: Antiviral activity against HIV2 ROD infected in human TK-deficient CEM/TK- T-cells assessed as reduction in virus-induced cytopathogenicity by measuring syncytia cell formation incubated for 4 to 5 days by microscopy; details: Human immunodeficiency virus 2, ISOLATE ROD
[4] = Half life in human CEM/0 cell extracts at 6 mM by HPLC analysis; format: ADME, tissue-based, CCRF-CEM
[5] = tested on: Human immunodeficiency virus 1; experiment: Antiviral activity against HIV1 3B infected in human CEM/0 CD4+ T cells assessed as reduction in virus-induced cytopathogenicity by measuring syncytia cell formation incubated for 4 to 5 days by microscopy; format: functional, organism-based; details: Human immunodeficiency virus 1, 3B, CCRF-CEM
[6] = organism: Homo sapiens; experiment: Substrate activity at human DNA polymerase gamma incubated at 37 degC for 60 mins and at 80 degC for 7 mins by primer extension assay; details: time 67.0 min
[7] = Half life assessed as pig liver esterase-mediated compound hydrolysis at 6 mM by HPLC analysis; format: ADME, Sus scrofa
[8] = tested on: Human immunodeficiency virus 2; experiment: Antiviral activity against HIV2 ROD infected in human CEM/0 CD4+ T cells assessed as reduction in virus-induced cytopathogenicity by measuring syncytia cell formation incubated for 4 to 5 days by microscopy; details: Human immunodeficiency virus 2, ISOLATE ROD, CCRF-CEM
[9] = target: T1, DNA polymerase alpha catalytic subunit (Homo sapiens) (UniProt P09884); experiment: Substrate activity at human DNA polymerase alpha incubated at 37 degC for 60 mins and at 80 degC for 7 mins by primer extension assay; details: time 67.0 min
T1 sequence (whole entry): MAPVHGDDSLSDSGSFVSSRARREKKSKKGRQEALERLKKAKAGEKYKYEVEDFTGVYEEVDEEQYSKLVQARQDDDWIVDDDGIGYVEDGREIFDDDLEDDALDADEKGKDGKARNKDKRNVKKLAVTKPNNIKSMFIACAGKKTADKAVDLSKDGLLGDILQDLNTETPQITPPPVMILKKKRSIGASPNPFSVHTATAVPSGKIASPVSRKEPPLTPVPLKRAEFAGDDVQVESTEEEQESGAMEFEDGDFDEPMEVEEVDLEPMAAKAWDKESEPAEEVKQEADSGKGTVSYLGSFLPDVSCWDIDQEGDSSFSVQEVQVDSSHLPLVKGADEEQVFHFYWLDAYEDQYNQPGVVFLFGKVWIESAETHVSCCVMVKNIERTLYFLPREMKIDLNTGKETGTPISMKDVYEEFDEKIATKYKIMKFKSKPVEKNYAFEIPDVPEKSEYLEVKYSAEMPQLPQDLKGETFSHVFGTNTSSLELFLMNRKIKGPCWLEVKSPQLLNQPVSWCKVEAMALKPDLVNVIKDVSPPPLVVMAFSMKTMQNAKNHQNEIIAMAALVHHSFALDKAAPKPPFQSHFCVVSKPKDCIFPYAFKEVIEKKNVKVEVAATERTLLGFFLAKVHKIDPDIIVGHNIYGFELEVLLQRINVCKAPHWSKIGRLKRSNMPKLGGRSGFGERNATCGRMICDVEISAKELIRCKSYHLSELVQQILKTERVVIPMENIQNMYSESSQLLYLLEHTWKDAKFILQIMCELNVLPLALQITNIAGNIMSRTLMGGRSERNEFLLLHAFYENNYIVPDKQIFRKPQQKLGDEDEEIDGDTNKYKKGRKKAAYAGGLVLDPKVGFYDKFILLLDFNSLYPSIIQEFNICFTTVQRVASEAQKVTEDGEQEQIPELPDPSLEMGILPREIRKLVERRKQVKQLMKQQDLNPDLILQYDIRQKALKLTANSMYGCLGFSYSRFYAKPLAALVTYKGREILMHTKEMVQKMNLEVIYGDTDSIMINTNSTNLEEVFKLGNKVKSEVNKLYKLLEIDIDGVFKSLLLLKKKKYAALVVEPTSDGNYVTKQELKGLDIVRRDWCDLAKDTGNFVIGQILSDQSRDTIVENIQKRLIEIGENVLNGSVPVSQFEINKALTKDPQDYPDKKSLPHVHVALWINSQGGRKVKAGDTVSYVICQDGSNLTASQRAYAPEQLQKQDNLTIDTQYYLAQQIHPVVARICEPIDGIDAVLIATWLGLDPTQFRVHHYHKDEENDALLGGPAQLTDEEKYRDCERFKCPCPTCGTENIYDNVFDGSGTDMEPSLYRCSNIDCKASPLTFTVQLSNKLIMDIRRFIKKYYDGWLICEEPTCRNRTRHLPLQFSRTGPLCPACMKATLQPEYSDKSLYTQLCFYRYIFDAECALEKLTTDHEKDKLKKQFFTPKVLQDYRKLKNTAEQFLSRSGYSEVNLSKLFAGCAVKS

[10] = target: DNA polymerase beta (Homo sapiens) (UniProt P06746); experiment: Substrate activity at human DNA polymerase beta incubated at 37 degC for 60 mins and at 80 degC for 7 mins by primer extension assay; details: time 67.0 min
[11] = Half life in pH 7.3 PBS buffer at 1.4 mM by HPLC analysis; format: physicochemical

CCCCCCCCCCCCCCCCCCP(=O)(O)OP(=O)(O)OP(=O)(O)OC[C@@H]1C=C[C@H](n2cc(C)c(=O)[nH]c2=O)O1.N.N.N
Activity [1]: inactive | CC50 [2]: 21000 nM | EC50 [3]: 1580 nM | half-life at 6000 µM [4]: > 30 h | EC50 [5]: 46 nM | Activity [6]: inactive | half-life at 6000 µM [7]: > 80 h | EC50 [8]: 110 nM | Activity [9]: inactive | Activity [10]: inactive | half-life at 1400 µM [11]: 22.3 days

CCCCCCCCCCCCCCCCCCP(=O)(OCc1ccc(OC(=O)OCCCC)cc1)OP(=O)(O)OP(=O)(O)OC[C@@H]1C=C[C@H](n2cc(C)c(=O)[nH]c2=O)O1.N.N (stereo not given in full)
CC50 [2]: 16000 nM | EC50 [3]: 32 nM | half-life at 6000 µM [4]: > 10 h | EC50 [5]: 1.8 nM | half-life at 6000 µM [7]: 1.04 h | EC50 [8]: 26 nM | half-life at 1400 µM [11]: 51.7 days

Cc1cn([C@H]2C=C[C@@H](CO)O2)c(=O)[nH]c1=O [STAVUDINE]
CC50 [2]: > 50000 nM | Activity [6]: inactive | Activity [9]: inactive | Activity [10]: Active

CCCCCCCCCCCCP(=O)(OCc1ccc(OC(=O)OC)cc1)OP(=O)(O)OP(=O)(O)OC[C@@H]1C=C[C@H](n2cc(C)c(=O)[nH]c2=O)O1.N.N (stereo not given in full)
CC50 [2]: > 100000 nM | EC50 [3]: 36800 nM | half-life at 6000 µM [4]: 0.65 h | EC50 [5]: 95 nM | half-life at 6000 µM [7]: 0.7 h | EC50 [8]: 350 nM | half-life at 1400 µM [11]: 5.12 days

CCCCCCCCCCCCP(=O)(OCCC#N)OP(=O)(O)OP(=O)(O)OC[C@@H]1C=C[C@H](n2cc(C)c(=O)[nH]c2=O)O1.N.N (stereo not given in full)
CC50 [2]: > 100000 nM | EC50 [3]: 20900 nM | half-life at 6000 µM [4]: > 15 h | EC50 [5]: 210 nM | half-life at 6000 µM [7]: > 80 h | EC50 [8]: 87 nM | half-life at 1400 µM [11]: 6.17 days

CCCCCCCCCCCCP(=O)(OCc1ccc(OC(=O)CCCC)cc1)OP(=O)(O)OP(=O)(O)OC[C@@H]1C=C[C@H](n2cc(C)c(=O)[nH]c2=O)O1.N.N (stereo not given in full)
CC50 [2]: 86000 nM | EC50 [3]: 3430 nM | half-life at 6000 µM [4]: 0.81 h | EC50 [5]: 65 nM | half-life at 6000 µM [7]: 0.013 h | EC50 [8]: 25 nM | half-life at 1400 µM [11]: 8.96 days

CCCCCCCCCCCCP(=O)(OCc1ccc(OC(=O)CCCCCCCCCCC)cc1)OP(=O)(O)OP(=O)(O)OC[C@@H]1C=C[C@H](n2cc(C)c(=O)[nH]c2=O)O1.N.N (stereo not given in full)
CC50 [2]: 37000 nM | EC50 [3]: 66 nM | half-life at 6000 µM [4]: > 8 h | EC50 [5]: 7.4 nM | half-life at 6000 µM [7]: 0.917 h | EC50 [8]: 91 nM | half-life at 1400 µM [11]: 38.3 days

CCCCCCCCCCCCP(=O)(OCc1ccc(OC(=O)OCCCC)cc1)OP(=O)(O)OP(=O)(O)OC[C@@H]1C=C[C@H](n2cc(C)c(=O)[nH]c2=O)O1.N.N (stereo not given in full)
CC50 [2]: 38000 nM | EC50 [3]: 9900 nM | half-life at 6000 µM [4]: 4.3 h | EC50 [5]: 97 nM | half-life at 6000 µM [7]: 0.009 h | EC50 [8]: 200 nM | half-life at 1400 µM [11]: 14.4 days

CCCCCCCCCCCCP(=O)(O)OP(=O)(O)OP(=O)(O)OC[C@@H]1C=C[C@H](n2cc(C)c(=O)[nH]c2=O)O1.N.N.N
Activity [1]: Active | CC50 [2]: > 100000 nM | EC50 [3]: 41100 nM | half-life at 6000 µM [4]: > 30 h | EC50 [5]: 150 nM | Activity [6]: inactive | half-life at 6000 µM [7]: > 150 h | EC50 [8]: 170 nM | Activity [9]: inactive | Activity [10]: inactive | half-life at 1400 µM [11]: > 125 days

CCCCCCCCCCCCCCCCCCP(=O)(OCCC#N)OP(=O)(O)OP(=O)(O)OC[C@@H]1C=C[C@H](n2cc(C)c(=O)[nH]c2=O)O1.N.N (stereo not given in full)
CC50 [2]: 38000 nM | EC50 [3]: 140 nM | half-life at 6000 µM [4]: > 10 h | EC50 [5]: 95 nM | half-life at 6000 µM [7]: > 150 h | EC50 [8]: 46 nM | half-life at 1400 µM [11]: 20 days

CCCCCCCCCCCCCCP(=O)(OCc1ccc(OC(=O)CCCC)cc1)OP(=O)(O)OP(=O)(O)OC[C@@H]1C=C[C@H](n2cc(C)c(=O)[nH]c2=O)O1.N.N (stereo not given in full)
CC50 [2]: 56000 nM | EC50 [3]: 530 nM | half-life at 6000 µM [4]: 4.5 h | EC50 [5]: 31 nM | half-life at 6000 µM [7]: 0.081 h | EC50 [8]: 160 nM | half-life at 1400 µM [11]: 21.2 days

CCCCCCCCCCCCCCP(=O)(OCc1ccc(OC(=O)OCCCC)cc1)OP(=O)(O)OP(=O)(O)OC[C@@H]1C=C[C@H](n2cc(C)c(=O)[nH]c2=O)O1.N.N (stereo not given in full)
CC50 [2]: 32000 nM | EC50 [3]: 1760 nM | half-life at 6000 µM [4]: 64 h | EC50 [5]: 120 nM | half-life at 6000 µM [7]: 0.032 h | EC50 [8]: 220 nM | half-life at 1400 µM [11]: 21.6 days

CCCCCCCCCCCCP(=O)(OCc1ccc(OC(C)=O)cc1)OP(=O)(O)OP(=O)(O)OC[C@@H]1C=C[C@H](n2cc(C)c(=O)[nH]c2=O)O1.N.N (stereo not given in full)
CC50 [2]: > 100000 nM | EC50 [3]: 26300 nM | half-life at 6000 µM [4]: 0.043 h | EC50 [5]: 23 nM | half-life at 6000 µM [7]: 0.46 h | EC50 [8]: 21 nM | half-life at 1400 µM [11]: 4.29 days

CCCCCCCCCCCCCCCCCCP(=O)(OCc1ccc(OC(=O)CCCC)cc1)OP(=O)(O)OP(=O)(O)OC[C@@H]1C=C[C@H](n2cc(C)c(=O)[nH]c2=O)O1.N.N (stereo not given in full)
CC50 [2]: 19000 nM | EC50 [3]: 42 nM | half-life at 6000 µM [4]: 6.7 h | EC50 [5]: 7.4 nM | half-life at 6000 µM [7]: 2 h | EC50 [8]: 21 nM | half-life at 1400 µM [11]: 26.9 days

CCCCCCCCCCCCP(=O)(OCc1ccc(OC(=O)OCCCCCCCCCCC)cc1)OP(=O)(O)OP(=O)(O)OC[C@@H]1C=C[C@H](n2cc(C)c(=O)[nH]c2=O)O1.N.N (stereo not given in full)
CC50 [2]: 39000 nM | EC50 [3]: 320 nM | half-life at 6000 µM [4]: > 10 h | EC50 [5]: 40 nM | half-life at 6000 µM [7]: 10.6 h | EC50 [8]: 110 nM | half-life at 1400 µM [11]: 47.9 days
